Results reported in ChEMBL document CHEMBL1126435, “DuP 747: a new, potent, kappa opioid analgesic. Synthesis and pharmacology1” (Bioorg Med Chem Lett, 1992).

How the values were obtained:
[1] = target: Sigma non-opioid intracellular receptor 1 (Homo sapiens, UniProt Q99720)
Description: Compound was evaluated for the binding affinity to sigma opioid receptor

Rattus norvegicus [2] = assay: Compound was evaluated for analgesic activity by rat tail-flick assay following subcutaneous administration; conditions: sc
Rattus norvegicus [3] = assay: Compound was evaluated for analgesic activity by rat tail-flick assay following peroral administration; conditions: po

Sequence of Sigma non-opioid intracellular receptor 1 (Q99720 whole entry): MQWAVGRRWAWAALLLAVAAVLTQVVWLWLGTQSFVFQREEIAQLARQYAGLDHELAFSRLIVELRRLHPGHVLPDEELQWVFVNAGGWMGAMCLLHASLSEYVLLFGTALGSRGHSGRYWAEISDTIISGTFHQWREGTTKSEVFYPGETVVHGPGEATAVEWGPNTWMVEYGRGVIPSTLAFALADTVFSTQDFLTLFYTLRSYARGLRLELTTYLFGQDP

Row | SMILES | Ki [1] | ED50 (Rattus norvegicus [2]) | ED50 (Rattus norvegicus [3])
1 | COc1cccc2c1CC[C@H](N1CCCC1)[C@H]2N(C)C(=O)Cc1ccc(Cl)c(Cl)c1 | 5.16 µM | – | –
2 | CN1CC[C@]23c4c5ccc(O)c4O[C@H]2[C@@H](O)C=C[C@H]3[C@H]1C5 [MORPHINE] | – | 4.9 mg/kg | 54 mg/kg
